Values after ≈ are worked out from the molar mass of the structure shown.
What was measured:
[1] = test system: Musca domestica; experiment: Lethal activity against insects, spray test on female Musca domestica; assay type: in vivo; details: sprayed onto 20 female Musca domestica, mortality after 48 hrs at 25°C
Protocol: (§1) The activity of the compounds of the invention was tested by dissolving the compounds in acetone (5%) and then diluting in water: "Symperonic" (94.5%:0.5%) to give a water emulsion. The solution was then used to treat the following insects: Musca domestica, Plutella xylostella, Myzus persicae and Tetranychus urticae.
20 Female Musca domestica were contained in a cardboard cyclinder with gauze over either end. A solution containing the compounds was sprayed onto the insects so enclosed and mortality assessed after 48 hrs at 25°C.

[2] = test system: Musca domestica (WRL strain); experiment: Topical application to unanaesthetised female Musca domestica; assay type: in vivo; details: topical application in cellosolve; mortality assessed after 10 mins, 1 hr, 24 hrs and 48 hrs
Protocol: Mortality was assessed after 10 mins, 1 hr, 24 hrs and 48 hrs.

[3] = test system: Myzus persicae; experiment: Lethal activity against insects, spray test on adult Myzus on chinese cabbage leaf disc; assay type: in vivo; details: 10 adult Myzus on leaf disc sprayed, mortality after 2 days at 25°C
Protocol: as §1
10 adult Myzus were placed on a leaf disc of chinese cabbage. 24 hours later the disc was sprayed with the solution containing the compound. Mortality was assessed after 2 days at 25°C.

[4] = test system: Coriolusversicolor, Coniophora putena, Aureobasidium pullulans and Chaetomium globosum; experiment: Antifungal testing, primary soft agar screen, inhibition of hyphae growth; assay type: cell-based; details: fungus not specified per compound; for IC50: read-out: IC₅₀
Protocol: The antifungal activity of compounds of the invention was determined using a primary soft agar screen. The concentration dependent inhibition of hyphae growth was determined for Coriolusversicolor, Coniophora putena, Aureobasidium pullulans and Chaetomium globosum.

[5] = Mammalian toxicity, oral, mice; assay type: in vivo; details: given orally to mice (Charles River CD1)
Protocol: 1-(2E)-6-Methoxyimino-3-methylhex-2-enyl-2-methylbenzimidazole and 1-geranyl-2,6,7-trimethylbenzimidazole have an LD₅₀ value of approximately 200 mg when given orally to mice (Charles River CD1).

[6] = test system: Plutella xylostella; experiment: Lethal activity against insects, spray test on Plutella larvae on chinese cabbage leaf; assay type: in vivo; details: 7 Plutella larvae and leaf sprayed, mortality after 2 days at 25°C
Protocol: as §1
7 Plutella larvae were sprayed with the solution containing the compound and added to a chinese cabbage leaf which had been similarly sprayed and left to dry. Mortality was assessed after 2-days at 25°C.

[7] = test system: Tetranychus urticae; experiment: Lethal activity, spray test on infested french bean leaf discs; assay type: in vivo; details: infested leaf discs sprayed, mortality after 2 days at 25°C
Protocol: as §1
Leaf discs of infested french bean were sprayed with the solution containing the compound. Mortality was assessed after 2 days at 25°C.

Compound	LD₅₀ [2] [µg/fly]	IC50 [4] [µg/mL]	other results
1-Geranyl-5(6)-methoxy-2-methylbenzimidazole	< 10	–	active at 1000 ppm [1]: active; active on Myzus persicae at 1000 ppm [3]: active; IC₅₀ [4]: 30 ppm
C=CCCC=CCn1c(C)nc2ccccc21 [1-[Hepta-2,6-dienyl]-2-methylbenzimidazole]	–	30 (≈ 133 µM)	–
CC(C)=CCC/C(C)=C/Cn1c(C)nc2ccc(C)c(C)c21 [1-Geranyl-2,6,7-trimethylbenzimidazole]	< 10	30 (≈ 101 µM)	active at 1000 ppm [1]: active; active on Myzus persicae at 1000 ppm [3]: active; LD₅₀ [5]: approximately 200 mg
CON=CCC/C(C)=C/Cn1c(C)nc2ccccc21 [1-[(2E)-6-Methoxyimino-3-methylhex-2-enyl]-2-methybenzimidazole]	< 10	–	LD₅₀ [5]: approximately 200 mg
CC(C)=CCC/C(C)=C/Cn1c(C)nc2c(N)cccc21 [4-Amino-1-geranyl-2-methylbenzimidazole]	< 10	30 (≈ 106 µM)	active at 1000 ppm [1]: active
C=CCCC(C)=CCn1c(C)nc2ccccc21 [1-[3-Methylhepta-2,6-dienyl]-2-methylbenzimidazole]	–	30 (≈ 125 µM)	–
CC(C)=CCC/C(C)=C/Cn1c(C)nc2cc(C)c(C)cc21 [1-Geranyl-2,5,6-trimethylbenzimidazole]	–	30 (≈ 101 µM)	–
5(6)-Chloro-geranyl-2-methylbenzimidazole	–	–	IC₅₀ [4]: 30 ppm
CC(=CCn1c(C)nc2ccccc21)CCOC(C)C (mixture of isomers) [(E/Z)-1-(5-isopropoxy-3-methylpent-2-enyl)-2-methylbenzimidazole]	< 10	–	–
CC(C)=CCC/C(C)=C/Cn1c(C)nc2c([N+](=O)[O-])cccc21 [1-Geranyl-2-methyl-4-nitrobenzimidazole]	< 10	30 (≈ 95.7 µM)	active at 1000 ppm [1]: active; active at 200 ppm [3]: active
COC(C)(C)CCC/C(C)=C/Cn1c(C)nc2c(C)c(C)ccc21 [(2E)-1-(7-Methoxy-3,7-dimethyloct-2-enyl)-2,4,5-trimethylbenzimidazole]	< 10	–	active at 200 ppm [1]: active; active at 1000 ppm [6]: active; active at 200 ppm [3]: active
5(6)-Ethoxy-1-geranyl-2-methyl-benzimidazole	–	–	IC₅₀ [4]: 30 ppm
CC(C)=CCC/C(C)=C/Cn1c(C)nc2c(Cl)cc(Cl)cc21 [4(7),6(5)-Dichloro-1-geranyl-2-methylbenzimidazole]	–	–	IC₅₀ [4]: 30 ppm
C/C(=C\Cn1c(C)nc2ccccc21)CCC=NOCc1ccccc1 [2-Methyl-1-[(2E)-3-methyl-6-benzyloxyiminohex-2-enyl]benzimidazole]	–	30 (≈ 86.3 µM)	–
C/C(=C\Cn1c(C)nc2ccccc21)CCC=C(Cl)Cl [1-, (2E)-7,7-Dichloro-3-methylhepta-2,6-dienyl,-2-methylbenzimidazole]	–	30 (≈ 97 µM)	–
COC(C)(C)CCC/C(C)=C/Cn1c(C)nc2ccc(C)c(C)c21 [(2E)-1-(7-Methoxy-3,7-dimethyloct-2-enyl)-2,6,7-trimethylbenzimidazole]	–	30 (≈ 91.3 µM)	–
COc1ccc2c(c1)nc(C)n2C/C=C(\C)CC/C=C(\C)CCC=C(C)C [(2E,6E)-5-Methoxy-2-methyl-1-(3,7,11-trimethyldodeca-2,6,10-trienyl)benzimidazole]	–	30 (≈ 81.8 µM)	–
CC=CCC/C(C)=C/Cn1c(C)nc2ccccc21 [(2E)-2-Methyl-1-(3-methlocta-2,6-dienyl)benzimidazole]	< 10	30 (≈ 118 µM)	–
COC(C)(C)CCC/C(C)=C/Cn1c(C)nc2c(C)cccc21 [(2E)-1-(7-Methoxy-3,7-dimethyloct-2-enyl)-2,4-dimethylbenzimidazole]	< 10	30 (≈ 95.4 µM)	active at 200 ppm [1]: active; active at 200 ppm [3]: active; active against Tetranychus urticae at 200 ppm [7]: active
COC(=O)c1cccc2nc(C)n(C/C=C(\C)CCC=C(C)C)c12 [Methyl 1-geranyl-2-methyl-benzimidazole-7-carboxylate]	–	30 (≈ 91.9 µM)	–
C/C(=C\Cn1c(C)nc2ccccc21)CCCC(C)(C)OC(=O)Nc1ccccc1 [(5E)-7-(2-Methylbenzimidazole-1-yl)-1,1,5-trimethylhept-5-enyl-N-phenyl-carbamate]	< 10	30 (≈ 74 µM)	–
CC(C)=CCC/C(C)=C/Cn1c(Cl)nc2ccccc21 [2-Chloro-1-geranylbenzimidazole]	< 10	–	active at 1000 ppm [1]: active; active on Myzus persicae at 1000 ppm [3]: active
1-Geranyl-2-methyl-5(6)-nitrobenzimidazole	< 10	–	active on Myzus persicae at 1000 ppm [3]: active
CC(C)=CCC/C(C)=C/CC/C(C)=C/Cn1c(C)nc2c(C)cccc21 [(2E,6E)-2,4-dimethyl-1-(3,7,11)-(trimethyldodeca-2,6,10-trienyl)benzimidazole]	–	30 (≈ 85.6 µM)	–
CC(C)=CCC/C(C)=C/Cn1c(C)nc2c(C)cccc21 [1-Geranyl-2,4-dimethylbenzimidazole, 2,4-Dimethyl-1-geranylbenzimidazole]	< 10	30 (≈ 106 µM)	active at 200 ppm [1]: active; active at 200 ppm [3]: active

— patent publication EP0269230A1, “Heterocyclic compounds” (priority 1986, dated 1988)
